Measurements reported in PubChem BioAssay AID179 (DTP/NCI, 2004).
Calls of active or inactive are those of the source.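 Rule for the calls: active = compounds giving half or more protection of infected cells from virus-caused growth loss, again on retest; inactive = the rest.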

Test system: CEM cells HIV-1 protection, formazan growth assay
Assay: NCI AIDS Antiviral Assay
Conditions: for IC50: measured here: growth of uninfected CEM cells
Summary of the method: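 Category rules: moderately active means at least 50% protection on retest, and confirmed active means 100% protection reproducibly. The underlying data came from a formazan growth assay in HIV-1-infected CEM cells.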

Structure (SMILES)	EC50 [µM]	IC50 [µM]	outcome
CCOC(=O)C1C(=O)CC(O)(OCC)C(C(=O)OCC)C1c1ccc(OC)cc1 (stereo not given)	> 200	> 200	
COC1/C=C/OC2(C)Oc3c(C)c(O)c4c(c3C2=O)C(=O)C=C(NC(=O)/C(C)=C\C=C\C(C)C(OC=O)C(C)C(O)C(C)C(OC(C)=O)C1C)C4=O (stereo not given)	> 200	7.41	
NNC(=S)N/N=C(\C(=O)Nc1cccc(O)c1)C1C(=O)NC(=S)NC1=O	> 631	447	
C=C(C)CC(C)(c1cc2ccccc2n1C)N1CCOCC1 (stereo not given)	> 100	64.6	
O=C1OCC23CCC4C1C42CC1(CC3)OCCO1 (stereo not given)	> 200	> 200	
Cc1ccc2c(c1)C(=O)c1[nH]c3ccc(F)cc3c1CO2	> 200	> 200	
COc1ccc2nc3c([N+](=O)[O-])ccc4c3c(c2c1)NCCN4C	> 100	0.513	
CCCCCCOc1ccc(C(=O)NO)cc1	> 200	13.2	
CC(C)(C)c1nc2c(o1)C(=Nc1ccccc1)c1ccccc1C2=O			inactive
c1ccc2c(c1)Sc1ccccc1S2	> 200	> 200	
Cc1cc(N(C)c2ccccc2)nc(N(C)c2ccccc2)n1	> 200	60.3	
O=[N+]([O-])c1ccc(Cl)c(C=NC23CC4CC(CC(C4)C2)C3)c1	> 200	3.89	
CN(C)CCNCCCNc1c2ccccc2nc2cccc([N+](=O)[O-])c12	> 2	0.0129	
CCCCOCOc1ccccc1P1(=O)COc2ccccc2OC1	> 200	44.7	
CC1CC(=O)Nc2cc(Cl)ccc2N1C(=O)C1CC1 (stereo not given)	> 200	> 200	
O=[N+]([O-])c1ccccc1NC1CCN(CCCC2(c3ccc(F)cc3)OCCO2)CC1	> 200	12.9	
OCCCNc1ccnc2cc(Cl)ccc12	> 912	81.3	
O=C1C=Cc2noc3cccc1c23			inactive
C#CC1(O)C(/C=N/O)OC(n2ccc(=O)[nH]c2=O)C1O[Si](C)(C)C(C)(C)C (stereo not given)	> 200	72.4	
COC(=O)CCC(=O)CC(=O)C1=NS(=O)(=O)c2nc(S(N)(=O)=O)c(Cl)cc2N1	0.38	550	
COC(=O)C12CCC(C)(C)CC1C1=CCC3C4(C)CC(O)C(O)C(C)(C(=O)OC)C4CCC3(C)C1(CO)CC2 (stereo not given)			inactive
Cc1cccc2oc3c(c(=O)c12)CC(O)C(C)(C)O3 (stereo not given)	> 200	79.4	
COC(=O)C1=C(C)N(NC(=O)Nc2ccccc2)C2(N)N(NC(=O)Nc3ccccc3)C(C)=C(C(=O)OC)C12C(=O)OC (stereo not given)	> 31.6	> 31.6	

Structure (SMILES)	EC50 [µM]	IC50 [µM]	outcome
O=C(N1CCN(CCO)CC1)N1c2ccccc2Sc2ccccc21	> 200	117	
COc1ccc(C(OCC2OC(n3ccc(NC(=O)c4ccccc4)nc3=O)C(O)C2O)(c2ccccc2)c2ccccc2)cc1 (stereo not given)	> 200	9.33	
CC(C)(C)NC(=O)N1N=C(c2ccccc2)C1c1ccccc1 (stereo not given)	> 200	26.9	
CCCCCCCCCCCCCCCCCCOCC(COP(=O)([O-])OCC[N+](C)(C)C)OC (stereo not given)	> 10.2	2.45	
CC(=O)N1CCSC(C(=O)Nc2ccccc2)=C1C	> 646	> 646	
CN1C(=O)CCCCCCCCCCSc2ccccc21	> 200	40.7	
NC(N)=NCCCC(N)C(=O)O (stereo not given)	> 200	> 200	
NNC1=Nc2ccc(Cl)cc2C(=S)N2CSCC12 (stereo not given)	> 200	> 200	
Cc1onc(-c2c(F)cccc2Cl)c1C(=O)Nc1cc2cc([N+](=O)[O-])ccc2oc1=O	> 50.1	> 50.1	
C=CCOc1ccc(/C(N=Nc2ccccc2)=N/NC(=O)c2ccccc2)cc1OC	> 200	107	
CCCCNc1nc(N)nc(Nc2ccc(Br)cc2)c1N=O	> 55	23.4	
Cc1c(CCO)c(=O)n2c([nH]c3ccccc32)c1C#N	> 107	85.1	
COc1ccc(-c2coc3c(OC)c(OC)c(OC)c(OC)c3c2=O)cc1	> 200	44.7	
CN(C)C(CN)CC1=C(CC(CN)N(C)C)CCC1 (stereo not given)			inactive
O=C1CC2(CCNCC2)C(=O)N1N1CCCC1	> 200	> 200	
Cc1cc(S(=O)(=O)Nc2n[nH]c(Nc3ccc4ccccc4c3)n2)c(S)cc1Cl	> 200	49	
O=c1/c(=C/c2c(O)ccc3ccccc23)sc2nc3ccccc3n12			inactive
C=CCNc1nc(C#N)c(N)s1	> 200	> 200	
COc1cccc2c1C(=O)C1(O)CCCCC21 (stereo not given)	44.7	> 200	
COC(=O)C(c1ccccc1)C(SCc1ccccc1)c1ccccc1 (stereo not given)	> 200	> 200	
O=C(O)CCCc1cc2c(s1)-c1cccc3cccc-2c13	> 33.9	> 33.9	
O=C(NCC(O)COc1ccccc1)c1ccccc1O (stereo not given)	> 200	115	
